Results as given in PMC3404749 (Molecular Pharmaceutics, 2012).

How the values were obtained:
[1] = target: T1, expressed human SULT1A3 (Homo sapiens, UniProt P0DMM9); test: Sulfonation activities of flavonoids in expressed human SULT1A3; assay type: in vitro ADME; settings: for sulfonation rate: pH 7.4, 37°C, n=3; for sulfate detection when SULT1A3 was used: expressed SULT1A3, LC-MS/MS and UPLC
[2] = target: T1, expressed human SULT1A3; test: Kinetics of flavonoid sulfonation by SULT1A3; settings: for Km1: SULT1A3, 0.039–20 µM substrate; for Kinetic model: SULT1A3, best-fit model by Eadie-Hofstee plot and AIC; for Ksi (substrate inhibition constant): SULT1A3, substrate inhibition model
[3] = target: SULT1A3 (Homo sapiens, UniProt P0DMM9); test: Kinetics of flavonoid sulfonation by SULT1A3; settings: human
Sequence of SULT1A3 (P0DMM9 whole entry): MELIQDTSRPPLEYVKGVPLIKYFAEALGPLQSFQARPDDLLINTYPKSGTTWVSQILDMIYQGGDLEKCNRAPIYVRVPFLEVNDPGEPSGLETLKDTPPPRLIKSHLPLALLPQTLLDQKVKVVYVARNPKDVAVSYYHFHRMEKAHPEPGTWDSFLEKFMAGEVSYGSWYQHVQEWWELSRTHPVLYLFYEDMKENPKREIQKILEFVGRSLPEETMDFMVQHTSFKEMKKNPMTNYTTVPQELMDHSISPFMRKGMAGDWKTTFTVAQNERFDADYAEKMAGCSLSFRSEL

[4] = expressed SULT1A3, substrate concentration 2.5 µM
[5] = expressed SULT1A3, substrate concentration 10 µM

T1 sequence (P0DMM9 whole entry): as above

SMILES | sulfonation rate [1, 4] | sulfonation rate [1, 5] | sulfate detection when SULT1A3 was used [1] | further results
O=C(CCc1ccc(O)cc1)c1c(O)cc(O)cc1O [phloretin, Phloretin] | 0 nmol/hr/mg protein | 0 nmol/hr/mg protein | – | –
O=c1cc(-c2ccccc2)oc2cc(O)cc(O)c12 [5,7DHF, 5,7-Dihydroxyflavone] | 62.30 ± 2.54 nmol/hr/mg protein | 85.37 ± 1.53 nmol/hr/mg protein | – | Km1 [2]: 2.73 µM; Kinetic model [2]: Biphasic kinetics; Vmax-2 (biphasic) ([2]; SULT1A3, biphasic kinetics): 17.38 nmol/min/mg; Km2 ([2]; SULT1A3, biphasic kinetics, low-affinity phase): 1e-06 mM
O=c1cc(-c2ccc(O)cc2)oc2cc(O)cc(O)c12 [apigenin, 5,7,4'-Trihydroxyflavone] | 19.00 ± 1.58 nmol/hr/mg protein | 19.36 ± 0.41 nmol/hr/mg protein | – | sulfonation rate ([1]; expressed SULT1A3, substrate concentration 2.5 µM, listed as 5,7,4'THF): 19.00±1.58 nmol/hr/mg protein
O=c1cc(-c2ccccc2)oc2cc(O)ccc12 [7HF, 7-Hydroxyflavone] | 35.66 ± 4.72 nmol/hr/mg protein | 48.92 ± 5.18 nmol/hr/mg protein | – | Km1 [2]: 2.80 µM; Kinetic model [2]: substrate inhibition kinetics; Ksi (substrate inhibition constant) [2]: 23.12; microsomal CLint [3]: 30400 µL/min/mg
O=C1C[C@@H](c2ccc(O)cc2)Oc2cc(O)cc(O)c21 [naringenin, Naringenin] | 3.21 ± 0.36 nmol/hr/mg protein | 12.03 ± 0.94 nmol/hr/mg protein | – | –
O=c1cc(-c2ccccc2)oc2cccc(O)c12 [5HF, 5-Hydroxyflavone] | 0 nmol/hr/mg protein | – | not detected | –
O=c1c(O)c(-c2ccccc2)oc2cc(O)cc(O)c12 [3,5,7THF, 3,5,7-Trihydroxyflavone] | 13.88 ± 1.21 nmol/hr/mg protein | 24.98 ± 0.49 nmol/hr/mg protein | – | –
O=c1c(O)c(-c2ccccc2)oc2cc(O)ccc12 [3,7DHF, 3,7-Dihydroxyflavone] | 45.84 ± 1.53 nmol/hr/mg protein | 74.69 ± 1.05 nmol/hr/mg protein | – | Vmax-1/ Km1 ([2]; SULT1A3): 43000 µL/min/mg; Km1 [2]: 1.85 µM; Kinetic model [2]: Sigmoidal kinetics of Hill equation
O=c1cc(-c2ccc(O)cc2)oc2ccccc12 [4’HF, 4'-Hydroxyflavone] | 0 nmol/hr/mg protein | – | not detected | –

Further lines, with some results ahead:

sulfonation rate [1, 4] | sulfonation rate [1, 5] | sulfate detection when SULT1A3 was used [1] | SMILES | further results
7.54 ± 0.34 nmol/hr/mg protein | 10.30 ± 1.64 nmol/hr/mg protein | – | O=c1cc(-c2ccc(O)cc2)oc2cc(O)ccc12 [7,4’DHF, 7,4'-Dihydroxyflavone] | Km1 [2]: 3.42 µM; Kinetic model [2]: Substrate inhibition; Ksi (substrate inhibition constant) [2]: 13.81
3.78 ± 0.79 nmol/hr/mg protein | 5.77 ± 0.22 nmol/hr/mg protein | – | O=c1c(O)c(-c2ccc(O)cc2)oc2cc(O)cc(O)c12 [kaempferol, 3,5,7,4’tetrahydroxyflavone] | –
0 nmol/hr/mg protein | 0 nmol/hr/mg protein | not detected | O=c1c(O)c(-c2ccc(O)cc2)oc2ccccc12 [3,4’DHF, 3,4'-Dihydroxyflavone] | –
0 nmol/hr/mg protein | 0 nmol/hr/mg protein | not detected | O=c1c(-c2ccc(O)cc2)coc2cc(O)cc(O)c12 [genistein, Genistein] | –
0 nmol/hr/mg protein | 0 nmol/hr/mg protein | not detected | O=c1c(O)c(-c2ccccc2)oc2ccccc12 [3HF, 3-Hydroxyflavone] | –
6.80 ± 1.28 nmol/hr/mg protein | 11.79 ± 0.33 nmol/hr/mg protein | – | O=c1c(O)c(-c2ccc(O)cc2)oc2cc(O)ccc12 [3,7,4'THF, 3,7,4'-Trihydroxyflavone] | –
